Laboratory results: PubChem BioAssay AID1963841 (Molecular Pharmacology Branch, DTP, NCI, 2024)

System: 439559-082-T-J2-PDC spheroid viability
Assay: Anticancer human tumor 439559-082-T-J2-PDC patient-derived colon adenocarcinoma cell line growth inhibition [POLQ]
Conditions: spheroids with HUVEC and MSC; for IC50: curve of first compound; for viability, T/C: stronger effect = lower value
Outline: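 Growth inhibition in 3D: complex spheroids (tumor PDC, HUVEC, MSC) treated with POLQ inhibitor combinations; where Cmax unknown, highest tested concentration 10 microM, except SN-38 at 1 microM.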

[1] = second compound 0.0316 µM, first compound 0.00316 µM
[2] = second compound 0.0316 µM, first compound 0.01 µM
[3] = second compound 0.0316 µM, first compound 0.0316 µM
[4] = second compound 0.0316 µM, first compound 0.1 µM
[5] = second compound 0.1 µM, first compound 0.00316 µM
[6] = second compound 0.1 µM, first compound 0.01 µM
[7] = second compound 0.1 µM, first compound 0.0316 µM
[8] = second compound 0.1 µM, first compound 0.1 µM
[9] = second compound 0.316 µM, first compound 0.00316 µM
[10] = second compound 0.316 µM, first compound 0.01 µM
[11] = second compound 0.316 µM, first compound 0.0316 µM
[12] = second compound 0.316 µM, first compound 0.1 µM
[13] = second compound 1 µM, first compound 0.00316 µM
[14] = second compound 1 µM, first compound 0.01 µM
[15] = second compound 1 µM, first compound 0.0316 µM
[16] = second compound 1 µM, first compound 0.1 µM
[17] = second compound 3.16 µM, first compound 0.00316 µM
[18] = second compound 3.16 µM, first compound 0.01 µM
[19] = second compound 3.16 µM, first compound 0.0316 µM
[20] = second compound 3.16 µM, first compound 0.1 µM
[21] = second compound 10 µM, first compound 0.00316 µM
[22] = second compound 10 µM, first compound 0.01 µM
[23] = second compound 10 µM, first compound 0.0316 µM
[24] = second compound 10 µM, first compound 0.1 µM
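Note: spheroids exposed to compounds for seven days before readout.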
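Throughout, for viability, T/C: 100% = DMSO vehicle control viability.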

## CC[C@@]1(O)C(=O)OCc2c1cc1n(c2=O)Cc2cc3c(CN(C)C)c(O)ccc3nc2-1 + Cc1cccc(N(C)C(=O)C2C(O)CCN2c2nc(C)cc(C(F)(F)F)c2C#N)c1
Second compound 0.0316 µM
  IC50: > 100 nM
Second compound 0.1 µM
  IC50: > 100 nM
Second compound 0.316 µM
  IC50: > 100 nM
Second compound 1 µM
  IC50: > 100 nM
Second compound 3.16 µM
  IC50: > 100 nM
Second compound 10 µM
  IC50: > 100 nM
Second compound 0.0316 µM, first compound 0.000316 µM
  viability, T/C: 94.1%
Second compound 0.0316 µM, first compound 0.001 µM
  viability, T/C: 101%
[1]
  viability, T/C: 96%
[2]
  viability, T/C: 97.2%
[3]
  viability, T/C: 92.2%
[4]
  viability, T/C: 85%
Second compound 0.1 µM, first compound 0.000316 µM
  viability, T/C: 113%
Second compound 0.1 µM, first compound 0.001 µM
  viability, T/C: 105%
[5]
  viability, T/C: 93.7%
[6]
  viability, T/C: 103%
[7]
  viability, T/C: 97.3%
[8]
  viability, T/C: 79.1%
Second compound 0.316 µM, first compound 0.000316 µM
  viability, T/C: 98.1%
Second compound 0.316 µM, first compound 0.001 µM
  viability, T/C: 112%
[9]
  viability, T/C: 94.9%
[10]
  viability, T/C: 89.8%
[11]
  viability, T/C: 84.9%
[12]
  viability, T/C: 83.4%
Second compound 1 µM, first compound 0.000316 µM
  viability, T/C: 104%
Second compound 1 µM, first compound 0.001 µM
  viability, T/C: 96.5%
[13]
  viability, T/C: 93.1%
[14]
  viability, T/C: 93%
[15]
  viability, T/C: 90.3%
[16]
  viability, T/C: 80.9%
Second compound 3.16 µM, first compound 0.000316 µM
  viability, T/C: 96.2%
Second compound 3.16 µM, first compound 0.001 µM
  viability, T/C: 101%
[17]
  viability, T/C: 98.9%
[18]
  viability, T/C: 93.5%
[19]
  viability, T/C: 89.9%
[20]
  viability, T/C: 76.5%
Second compound 10 µM, first compound 0.000316 µM
  viability, T/C: 93.2%
Second compound 10 µM, first compound 0.001 µM
  viability, T/C: 89.4%
[21]
  viability, T/C: 92.8%
[22]
  viability, T/C: 91.6%
[23]
  viability, T/C: 90.3%
[24]
  viability, T/C: 75%

## CCc1c2c(nc3ccc(O)cc13)-c1cc3c(c(=O)n1C2)COC(=O)[C@]3(O)CC + Cc1cccc(N(C)C(=O)C2C(O)CCN2c2nc(C)cc(C(F)(F)F)c2C#N)c1
Second compound 0.0316 µM
  IC50: 739 nM
Second compound 0.1 µM
  IC50: 705 nM
Second compound 0.316 µM
  IC50: 698 nM
Second compound 1 µM
  IC50: 708 nM
Second compound 3.16 µM
  IC50: 968 nM
Second compound 10 µM
  IC50: 702 nM
[1]
  viability, T/C: 92.9%
[2]
  viability, T/C: 82.2%
[3]
  viability, T/C: 70.8%
[4]
  viability, T/C: 74.7%
Second compound 0.0316 µM, first compound 0.316 µM
  viability, T/C: 64%
Second compound 0.0316 µM, first compound 1 µM
  viability, T/C: 43.2%
[5]
  viability, T/C: 90.9%
[6]
  viability, T/C: 87%
[7]
  viability, T/C: 74.5%
[8]
  viability, T/C: 68.3%
Second compound 0.1 µM, first compound 0.316 µM
  viability, T/C: 65.7%
Second compound 0.1 µM, first compound 1 µM
  viability, T/C: 42.8%
[9]
  viability, T/C: 95.3%
[10]
  viability, T/C: 82.2%
[11]
  viability, T/C: 76.3%
[12]
  viability, T/C: 70.6%
Second compound 0.316 µM, first compound 0.316 µM
  viability, T/C: 63%
Second compound 0.316 µM, first compound 1 µM
  viability, T/C: 42.9%
[13]
  viability, T/C: 90.9%
[14]
  viability, T/C: 90.9%
[15]
  viability, T/C: 74%
[16]
  viability, T/C: 67.1%
Second compound 1 µM, first compound 0.316 µM
  viability, T/C: 62.5%
Second compound 1 µM, first compound 1 µM
  viability, T/C: 44.9%
[17]
  viability, T/C: 90.3%
[18]
  viability, T/C: 76.8%
[19]
  viability, T/C: 72.1%
[20]
  viability, T/C: 71%
Second compound 3.16 µM, first compound 0.316 µM
  viability, T/C: 62.8%
Second compound 3.16 µM, first compound 1 µM
  viability, T/C: 47.2%
[21]
  viability, T/C: 80.6%
[22]
  viability, T/C: 76.3%
[23]
  viability, T/C: 66.9%
[24]
  viability, T/C: 68.4%
Second compound 10 µM, first compound 0.316 µM
  viability, T/C: 60.5%
Second compound 10 µM, first compound 1 µM
  viability, T/C: 44.9%
